Test results from the supplement of paper PMC3937590.

What was measured:
Experiment in all cases: -log10 GI50 (growth inhibition 50%) (-log10(M)); higher = more potent growth inhibition
[1] = tested on: MCF10F
How it was run: (§1)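 The reported figure is the negative logarithm of GI50, defined as the molar concentration that produces the set level of growth inhibition. The logarithm is base 10. It comes from a Gompertz curve fitted by nonlinear least squares to 72-hour luminescence data from breast cancer cell lines given nine doses in 1:5 serial dilution, in triplicate, with a time-zero plate as reference. A < qualifier marks values equal to the top dose.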

[2] = tested on: HCC1395
How it was run: as §1

[3] = tested on: HCC1187
How it was run: as §1

[4] = tested on: CAMA1
How it was run: as §1

[5] = tested on: HS578T
How it was run: as §1

[6] = tested on: HCC1569
How it was run: as §1

[7] = tested on: BT20
How it was run: as §1

[8] = tested on: MDAMB134VI
How it was run: as §1

[9] = tested on: HCC202
How it was run: as §1

[10] = tested on: SUM185PE
How it was run: as §1

[11] = tested on: HBL100
How it was run: as §1

Compound	-log10 GI50 [1]	-log10 GI50 [2]	-log10 GI50 [3]	-log10 GI50 [4]	-log10 GI50 [5]	-log10 GI50 [6]	-log10 GI50 [7]	-log10 GI50 [8]	-log10 GI50 [9]	-log10 GI50 [10]	-log10 GI50 [11]
Cc1cncc2cccc(S(=O)(=O)N3CCCN(C(=O)CN)C[C@@H]3C)c12 [Glycyl H1152]	< 4.18	5.05	6.22	< 4.48	5.82	5.21	5.18	5.9			
O=C(c1ccc(Nc2nccc(-c3cc4ccccc4s3)n2)cc1)N1CCC(N2CCCC2)CC1 [IKK 16]	5.37	5.86	5.25	5.57	5.53	5.48	5.42	5.26	5.1		
CCCCCN(C)CCC(O)(P(=O)(O)O)P(=O)(O)O [Ibandronate sodium]	3.81	4.89	3.77	3.82	5.03	4.21	4.69	4.17			
Cc1ccc(NC(=O)c2ccc(CN3CCN(C)CC3)cc2)cc1Nc1nccc(-c2cccnc2)n1 [Imatinib]	4.71	4.77	4.6	4.71	4.1	4.75	4.89	4.47	5.81	4.91	4.62
Cc1ccc(C(=O)N(CCCN)[C@@H](c2nc3cc(Cl)ccc3c(=O)n2Cc2ccccc2)C(C)C)cc1 [Ispinesib]	7.57	7.64	7.58	7.51	6.51	6.8	7.77	7.36	8.12	6.96	7.52
C/C(=C\c1csc(C)n1)[C@@H]1C[C@@H]2O[C@]2(C)CCC[C@H](C)[C@H](O)[C@@H](C)C(=O)C(C)(C)[C@@H](O)CC(=O)N1 [Ixabepilone]	8.08	7.96	8.66	9.02	8.62	6.55	8.45	9	6.37	8.07	
Cc1[nH]c2ccccc2c1CCNCc1ccc(/C=C/C(=O)NO)cc1 [LBH589]	6.04	6.56	6.76	7.3	6.55	6.81	6.41	7.05		7.11	
CS(=O)(=O)CCNCc1ccc(-c2ccc3ncnc(Nc4ccc(OCc5cccc(F)c5)c(Cl)c4)c3c2)o1 [Lapatinib]	4.94	< 4.78	< 4.78	< 4.78	< 4.78	5.47	< 4.78	< 4.78	6.12	< 4.78	
C[C@]12O[C@H](C[C@]1(O)CO)n1c3ccccc3c3c4c(c5c6ccccc6n2c5c31)CNC4=O [Lestaurtinib]	5.72	6.91	6.13	5.42	5.99	6.19	5.53	6.33		7.2	
CC(C)C[C@@H](C=O)NC(=O)[C@H](CC(C)C)NC(=O)[C@H](CC(C)C)NC(=O)OCc1ccccc1 [MG-132]	7.14	6.64	7.1	6.69	6.64	6.68	6.37	6.63		7.01	
NS(=O)(=O)OC[C@@H]1C[C@@H](n2ccc3c(N[C@H]4CCc5ccccc54)ncnc32)C[C@@H]1O [MLN4924]	6.2	5.73	6.09	7.29	6.63	4.86	5.7	7.06		7.27	
CN(Cc1cnc2nc(N)nc(N)c2n1)c1ccc(C(=O)N[C@@H](CCC(=O)O)C(=O)O)cc1 [Methotrexate]	7	< 3.48	5.59	6.97	< 3.48	< 3.48	< 3.48	< 3.48	7.69	< 3.48	< 3.48
NS(=O)(=O)c1ccc(Nc2nc(OCC3CCCCC3)c3[nH]cnc3n2)cc1 [NU6102]	5	5.03	5.11	4.79	4.69	4.79		4.74		5.02	
COc1ccc(C2=N[C@@H](c3ccc(Cl)cc3)[C@@H](c3ccc(Cl)cc3)N2C(=O)N2CCNC(=O)C2)c(OC(C)C)c1 [Nutlin 3a]	5.18	4.65	4.78	4.34	< 4.18	4.43	4.41	4.47	5.02	4.54	4.32
CC[C@H](CO)Nc1nc(NCc2ccccc2O)c2ncn(C(C)C)c2n1 [Olomoucine II]	5.03	5.72	5.18	5.3	5.18	5.28	5.43	5.23		5.98	
O=C(/C=C/C#Cc1cccc(NS(=O)(=O)c2ccccc2)c1)NO [Oxamflatin]	5.41	5.67	6.19	6.09	5.86	5.88	5.42	6.18		6.51	
O=S(=O)(CC1CS1)c1ccc(Oc2ccccc2)cc1 (stereo not drawn) [SB-3CT]	< 4	4.03	4.83	< 4	4.42	< 3.78	4.21	< 4		4.75	
N#Cc1c(-c2ccccc2)cc(-c2cc(Br)ccc2O)[nH]c1=O [TCS PIM-11]	< 3.88	< 3.88	4.42	< 3.88	< 4.18	4.33	< 3.88	< 3.88		4.67	
CC(/C=C/C(=O)NO)=C\[C@@H](C)C(=O)c1ccc(N(C)C)cc1 [Trichostatin A]	4.22	4.5	5.32	5.57	4.77	5.06	4.68	5.2	6.4	4.76	
CCCC(CCC)C(=O)O [Valproic acid]	2.42	2.47	2.78	2.79	2.32	2.77	2.44	3.12		2.84	
